Series [1] relates to T-lymphocyte cells isolated from thymus. Briefly: Cell proliferation, T-Cell + Con A ([3H]thymidine incorporation). In kind it is cell-based, balb/c mice. The note with it: Mus musculus. On the procedure:
T-lymphocyte cells isolated from thymus of balb/c mice weighing 17±1 g were used. Test compound and/or vehicle is incubated with the cells (4×10^6/ml) in the presence of 3 μg/mL Concanavalin A (Con A) in AIM-V medium pH 7.4 at 37° C. for 24 hours. [^3H]Thymidine (120 nM) was then added for an additional overnight incubation period. Thymidine incorporation was assessed by liquid scintillation counting. Compounds were screened at 10, 1, 0.1, 0.01 and 0.001 μM.
(§1) Test compound-induced suppression of cell proliferation by 50 percent or more (≧50%) relative to vehicle control response indicates significant inhibitory activity.
A general note: Incorporation of labelled thymidine or its analogues reports DNA synthesis.

Series [2] deals with arthritis induced by monoclonal antibodies raised against type II collagen, plus LPS. Put plainly: Collagen monoclonal antibody (mABs) + LPS induced arthritis, hind paw volume. The format is in vivo, BALB/c strain mice. The note with it: for inhibition of increase in hind paw volume: 30 mg/kg orally x3. On the procedure: Groups of 3 BALB/c strain mice, 6-7 weeks of age, were used for the induction of arthritis by monoclonal antibodies (mABs) raised against type II collagen, plus lipopolysaccharide (LPS). A combination of 4 different mABs (D8, F10, DI-2G and A2) totaling 4 mg/mouse was administered to the animal intravenously on day 0, followed by intravenous challenge with […] of LPS 72 hours later (day 3). From day 3, test substance and vehicle were each administered orally once daily for 3 consecutive days. For each animal, volumes of both hind paws were measured using a plethysmometer with water cell (12 mm diameter) on Days 0, 5, 7, 10, 14 and 17.
C0 (Cn): volume of day 0 (day n) in vehicle control
T0 (Tn): volume of day 0 (day n) in test compound-treated group
Reduction of edema in the hind paws by 30% or more is considered significant.

Series [3] has as its system B-lymphocyte cells isolated from the spleen. Briefly: Cell proliferation, B-Cell + LPS ([3H]thymidine incorporation). As to conditions: Mus musculus. In kind it is cell-based, balb/c mice. On the procedure:
B-lymphocyte cells isolated from the spleen of balb/c mice weighing 17±1 g were used. Test compound and/or vehicle were incubated with the cells (1.5×10^6/ml) in the presence of 10 μg/ml lipopolysaccharide (LPS) in AIM-V medium pH 7.4 at 37° C. for 24 hours. [^3H]Thymidine (120 nM) was then added for an additional overnight incubation period. Thymidine incorporation was assessed by liquid scintillation counting.
as §1

For series [4], the system named is Experimental Autoimmune Encephalomyelitis (EAE). Briefly: Acute stage Experimental Autoimmune Encephalomyelitis (EAE) model, daily dosing. The protocol: Accordingly, three randomized cohorts of guinea pigs with EAE induced by the method of Example 2, were treated, respectively, with 6 mg/kg of Symadex™ (full salt hydrate) and 0.35 mg/kg of mitoxantrone. Animals were treated daily, by intraperitoneal injection, for 15 days, starting on day 7 post immunization. Controls were treated with vehicle. We reasoned that 15 consecutive, 6 mg/kg doses of Symadex™ would represent a level of drug exposure that would be commensurate with the “20 mg/kg every 72 hours” regimen in Example 4 and consistent with a mid level exposure between the 20 mg/kg and the 40 mg/kg schedule given weekly, in Example 2. The mitoxantrone dose was selected to reflect a typical high dose given to rats or mice by daily dosing in the prior art, but allometrically scaled to the guinea pig.

For series [5] the following is noted: human dose of 540 mg/m^2 body surface area (as free base); cited from earlier work.

These results are taken from patent US20080108641A1, “Compounds for treating inflammatory disorders, demyelinating disdorders and cancers” (priority 2006, published 2008).

In general, IC50 refers to the concentration that gives 50% inhibition. The inhibition is the drop in the measured response relative to a control, in per cent.

Take `CCN(CC)CCNc1ccc2ncn3c4ccc(O)cc4c(=O)c1c23` [Symadex™]: the IC50 amounted to 14 nM in series [1] and 38 nM in series [3]. The inhibition at 0.001 µM in series [1] (read-out: % Growth Inhibition) was determined as 10%; in series [3] (read-out: % Growth Inhibition) it was 0%. In addition, the inhibition at 0.01 µM in series [1] (read-out: % Growth Inhibition) turned out to be 44%; in series [3] (read-out: % Growth Inhibition) it was 38%. The inhibition at 0.1 µM stood at 82% in series [1] (read-out: % Growth Inhibition) and 80% in series [3] (read-out: % Growth Inhibition). Moreover, the results for the inhibition at 1 µM in series [1] (read-out: % Growth Inhibition) and in series [3] (read-out: % Growth Inhibition) were 103% and 101%, respectively. Also, the figures for the inhibition at 10 µM in series [1] (read-out: % Growth Inhibition) and in series [3] (read-out: % Growth Inhibition) were 104% and 103%, respectively. The “increase in hind paw volume” value is given as 32% in series [2] (day 5, 3 consecutive daily oral doses at 30 mg/kg from day 3, vehicle 42%); 29% in series [2] (day 10, 3 consecutive daily oral doses at 30 mg/kg, vehicle 75%); 18% in series [2] (day 14, 3 consecutive daily oral doses at 30 mg/kg, vehicle 70%); 19% in series [2] (day 17, 3 consecutive daily oral doses at 30 mg/kg, vehicle 47%). The “inhibition of increase in hind paw volume” value in series [2] (day 10) stood at 61%; in series [2] (day 14) it was 74%; in series [2] (day 17), 59%. Moreover, the “clinical score course (neurological impairment)” value in series [4] (daily i.p. for 15 days from day 7 post immunization, Symadex 6 mg/kg, mitoxantrone 0.35 mg/kg) is recorded as “initial rise in neurological impairment is arrested”. The “statistical significance of therapeutic effect on clinical score vs control (Mann-Whitney rank-sum)” value in series [4] (daily i.p. for 15 days, Symadex 6 mg/kg (p below 0.05), mitoxantrone 0.35 mg/kg) is listed as “reaches statistical significance”. Moreover, the “pathology scores: perivascular cuffing (P), myelitis (E) and demyelination (D) vs control” value in series [4] (necropsy after 15 daily doses, p value<0.05 from control) was “reducing the perivascular cuffing (P), myelitis (E) and demyelination (D)”. Moreover, the “tolerability of single dose” value in series [5] was “safe and well-tolerated”.
